Test results as given in patent publication US20060286046A1, “Skin care compositions” (priority 2005, published 2006).

What was measured:
Assay type in all cases: cell-based, human
JEG-3 cells [1] = experiment: Metabolic activity (Alamar Blue) after dark exposure; conditions: incubated in the dark for 24 hours; FIG. 1
Protocol: Alamar Blue™ is a metabolic activity indicator that requires the reducing power of the cell to transform the dye from the non-fluorescent to the fluorescent. Decreased metabolic activity of a cell is generally associated with cell damage due to a variety of stressors.
JEG-3 cells, a human placental choriocarcinoma cell line of epithelial origin, were grown and maintained at 37° C., 5% CO2 in 75 mm^2 culture flasks until a confluent monolayer was formed. Cells were then removed, washed, re-suspended, and counted on a hemocytometer, allowing for the concentration to be adjusted to 30,000 cells/mL. Aliquots of 0.2 mL of the cell solution were added into each well of a 96 well micro-plate. The cells were incubated at 37° C., 5% CO2 for 48 hours prior to treatment to allow for a confluent monolayer to form. […]
Two viability experiments were done at the end of the incubation periods (Dark or SSR exposure). […] The presence of an intact membrane allows the CFDA-AM to concentrate and give a higher reading than may occur outside the cell. […] The plates were incubated for 30 minutes at 37° C./5% CO2 and were then read on a fluorimeter (PerSeptive Biosystems Cytofluor 4000) with excitation and emission, respectively, set at 530 nm and 590 nm for Alamar Blue™ and 485 nm and 530 nm for CFDA-AM. […] The results were calculated as a percentage of the control value.

JEG-3 cells [2] = experiment: Reactive oxygen species detection (H2DCFDA) after SSR exposure; conditions: SSR 16 hours; FIG. 4
Protocol: (§1) JEG-3 cells, a human placental choriocarcinoma cell line of epithelial origin, were grown and maintained at 37° C., 5% CO2 in 75 mm^2 culture flasks until a confluent monolayer was formed. Cells were then removed, washed, re-suspended, and counted on a hemocytometer, allowing for the concentration to be adjusted to 30,000 cells/mL. Aliquots of 0.2 mL of the cell solution were added into each well of a 96 well micro-plate. The cells were incubated at 37° C., 5% CO2 for 48 hours prior to treatment to allow for a confluent monolayer to form. The media was aspirated off and new media with test compounds were added at various concentrations.
(§2) All treatments were made in MEM without FBS. The anti-oxidants were added directly to the medium. The cells were then incubated for 16 hours at 37° C./5% CO2 under simulated solar radiation (SSR) conditions, with a UVB:UVA:visible light ratio of 0.3:5.52:96 mmol m−2 s−1 (total fluence rate: 102 mmol m−2 s−1, which is about 5% of full sunlight).
To determine the levels of ROS generated in the cell system, another fluorescent probe, H2DCFDA, was used. After the 16-hour incubation period under SSR, the media was removed. The probe was added to PBSG in a ratio of 1 μl/ml for a final concentration of 4 nM according to manufacturer instructions. From this mixture, 200 μl/well was added and the plate read on the Cytofluor 4000 at 485 nm excitation and 530 nm emission for 4 hours with readings taken every hour. Results are stated in relative fluorescence units representing the fluorescent product, dichlorofluorescein (DCF). The results were calculated as a percentage of the dark control.

JEG-3 cells [3] = experiment: Viability experiments (Alamar Blue and CFDA-AM) after simulated solar radiation (SSR) exposure; conditions: SSR 16 hours
Protocol: as §1, §2
Two viability experiments were done at the end of the incubation periods (Dark or SSR exposure). Alamar Blue™ is a metabolic (primarily mitochondrial) activity indicator that requires the reducing power of the cell to transform the dye from non-fluorescent to fluorescent. Carboxy-fluorescein diacetate (CFDA-AM) is also a fluorescent dye that requires cellular esterases inside a cell to become fluorescent. The presence of an intact membrane allows the CFDA-AM to concentrate and give a higher reading than may occur outside the cell. Both dyes were combined in phosphate buffered saline with glucose (PBSG) buffer and added to the microplate wells after the media (MEM plus treatment) was removed. […] The plates were incubated for 30 minutes at 37° C./5% CO2 and were then read on a fluorimeter (PerSeptive Biosystems Cytofluor 4000) with excitation and emission, respectively, set at 530 nm and 590 nm for Alamar Blue™ and 485 nm and 530 nm for CFDA-AM. Because of the different excitation and emission wavelengths as well as little cross-reactivity, both dyes can be used simultaneously. The results were calculated as a percentage of the control value.

| SMILES | metabolic activity compared to control cells (JEG-3 cells [1]) | ROS levels (DCF production) (JEG-3 cells [2]) | protection of cell viability (JEG-3 cells [3]; 10 mM) | protection of cell viability (JEG-3 cells [3]; all concentrations) | protective effect on ROS compared to other antioxidants (JEG-3 cells [2]) |
| --- | --- | --- | --- | --- | --- |
| NCCC(=O)N[C@@H](Cc1cnc[nH]1)C(=O)O [carnosine, L-carnosine] | did not differ significantly from control | did not decrease ROS levels | only partial protection | only provided for partial protection of cell viability |  |
| CC(=O)N[C@@H](CS)C(=O)O [NAC, N-acetylcysteine] | did not differ significantly from control | decreased dye levels (DCF production) | complete protection |  | superior to ascorbate but not as great as GSH |
| O=C1O[C@H]([C@@H](O)CO)C(O)=C1O [ascorbate, ascorbic acid] |  |  | only partial protection |  |  |
| N[C@@H](CCC(=O)N[C@@H](CS)C(=O)NCC(=O)O)C(=O)O [GSH, glutathione] |  |  | complete protection |  |  |
